Measurements as given in PMC12045974, “T cell toxicity induced by tigecycline binding to the mitochondrial ribosome” (Nature Communications, 2025).
Where “and” joins values, the source holds several entries; their conditions need not be identical. Equal entries are not always repeated.

Tests used:
[1] = test system: Jurkat T cells; experiment: Cell viability assay (CCK-8), Jurkat T cells; type: cell-based, human; settings: Jurkat, in % (unit assumed)
Description: (§1) Cells were seeded in 96-well plates ranging from 2000 to 15,000 cells per well depending on different cell lines and treated with antibiotics in serial dilutions for 72 h (120 h for the preliminary assays) in a humidified incubator (37 °C, 5% CO2) in 100 μl medium (DMEM with 10% FBS, 2.05 mM L-glutamine (Sigma) for Hek293 and Hela; RPMI-1640 with 10% FBS, 2.05 mM L-glutamine (Sigma), and 55 μM 2-ME (Gibco) for Jurkat T cells and PBMCs). Based on preliminary tests, the number of cells per well was optimized to 2000 for Hela and Hek293, 6000 for Jurkat T cells, and 15,000 for PBMCs. The stocks of antibiotics were prepared by dissolving in DMSO. As control, the same amount of DMSO was added to the non-treated groups. Serial drug dilutions were prepared in the corresponding medium to provide a total of 9 concentrations up to 300 μM for tetracyclines and up to 900 μM for additional bacterial protein synthesis inhibitors. After drug treatment, 10% CCK-8 (Cell Counting Kit-8, Sigma Aldrich) (10 μl per well) of the total volume was added to the cells and incubated for 1–4 h depending on cell lines (1 h for Hela and Hek293; 3 h for Jurkat T cells; 4 h for PBMCs) before the evaluation of the effect of antibiotics on cell viability. […] Results were visually confirmed under the light microscope. Each treatment was performed in technical repeats. Dose-response curves were plotted, mean ± SEM was shown, and half maximal inhibitory concentration (IC50) values were calculated in GraphPad Prism.

[2] = test system: HeLa cells; experiment: Cell viability assay (CCK-8), HeLa cells; type: cell-based; settings: Hela, in % (unit assumed)
Description: as §1

[3] = test system: Hek293 cells; experiment: Cell viability assay (CCK-8), Hek293 cells; type: cell-based, human; settings: in % (unit assumed)
Description: as §1

[4] = test system: PBMCs; experiment: Cell viability assay (CCK-8), PBMCs; type: cell-based, human; settings: PBMCs, 72 h, Fig. 1A, in % (unit assumed)
Description: as §1, with “Buffy coats were ordered from anonymous blood donors at […]. […] Cells” for “Cells”, “1-4” for “1–4”

| Molecule | cell vialibity normalized to Vehicle (DMSO) ([1]; dose 0.137174 μM) | cell vialibity normalized to Vehicle (DMSO) ([1]; dose 0.411523 μM) | cell vialibity normalized to Vehicle (DMSO) ([1]; dose 1.23457 μM) | cell vialibity normalized to Vehicle (DMSO) ([1]; dose 3.7037 μM) | cell vialibity normalized to Vehicle (DMSO) ([1]; dose 11.1111 μM) | cell vialibity normalized to Vehicle (DMSO) ([1]; dose 33.3333 μM) | cell vialibity normalized to Vehicle (DMSO) ([2]; dose 0.137174 μM) | cell vialibity normalized to Vehicle (DMSO) ([2]; dose 0.411523 μM) | cell vialibity normalized to Vehicle (DMSO) ([2]; dose 1.23457 μM) | cell vialibity normalized to Vehicle (DMSO) ([2]; dose 3.7037 μM) | cell vialibity normalized to Vehicle (DMSO) ([2]; dose 11.1111 μM) | cell vialibity normalized to Vehicle (DMSO) ([2]; dose 33.3333 μM) | cell vialibity normalized to Vehicle (DMSO) ([2]; dose 100 μM) | cell vialibity normalized to Vehicle (DMSO) ([2]; dose 300 μM) | cell vialibity normalized to Vehicle (DMSO) ([2]; dose 900 μM) | cell vialibity normalized to Vehicle (DMSO) ([3]; HEK293, dose 0.137174 μM) | cell vialibity normalized to Vehicle (DMSO) ([3]; HEK293, dose 0.411523 μM) | cell vialibity normalized to Vehicle (DMSO) ([3]; HEK293, dose 1.23457 μM) | cell vialibity normalized to Vehicle (DMSO) ([3]; HEK293, dose 11.1111 μM) | cell vialibity normalized to Vehicle (DMSO) ([3]; HEK293, dose 33.3333 μM) | other results |
| --- | --- | --- | --- | --- | --- | --- | --- | --- | --- | --- | --- | --- | --- | --- | --- | --- | --- | --- | --- | --- | --- |
| C[C@H]1c2cccc(O)c2C(=O)C2=C(O)[C@]3(O)C(=O)C(C(N)=O)=C(O)[C@@H](N(C)C)[C@@H]3[C@@H](O)[C@@H]21 [DOX] | 94.1176 and 108.66 | 95.2614 and 97.0588 | 97.7941 and 96.1601 | 99.2647 and 106.127 | 82.9248 and 78.6765 | 10.049 and 10.3758 | 99.8907 | 100.467 and 99.0837 | 99.4691 and 99.9582 | 100.07 and 93.5237 | 94.9721 and 92.1866 | 96.9079 and 96.5877 | 97.8134 and 89.7632 | 79.6379 and 78.468 | 4.838 and 4.476 | 97.7577 and 100.716 | 94.3943 and 94.2074 | 85.067 and 89.3024 | 79.6792 and 82.0461 | 56.1352 and 52.9274 | cell vialibity normalized to Vehicle (DMSO) ([1]; dose 100 μM): 2.696 and 3.35; cell vialibity normalized to Vehicle (DMSO) ([3]; HEK293, dose 3.7037 μM): 85.4718 and 85.9078; cell vialibity normalized to Vehicle (DMSO) ([3]; HEK293, dose 100 μM): 25.8642 and 25.3348; cell vialibity normalized to Vehicle (DMSO) ([3]; HEK293, dose 300 μM): 21.3952 and 21.8001; cell vialibity normalized to Vehicle (DMSO) ([3]; HEK293, dose 900 μM): 5.254 and 4.351 |
| CN(C)c1cc(NC(=O)CNC(C)(C)C)c(O)c2c1C[C@H]1C[C@H]3[C@H](N(C)C)C(O)=C(C(N)=O)C(=O)[C@@]3(O)C(O)=C1C2=O [TIGE] | 84.3137 and 94.7712 | 86.6013 and 87.2549 | 80.8824 and 75.3268 | 47.0588 and 43.6275 | 16.7484 and 17.0752 | 6.618 and 5.964 | 99.0957 and 99.8329 | 99.7643 and 100.836 | 95.2089 and 96.0446 | 96.0724 and 96.0446 | 92.3538 and 93.0501 | 92.3816 and 88.3426 | 85.5606 and 88.2068 | 79.8329 and 79.3036 | 37.2702 and 29.1086 | 102.411 and 106.702 | 106.064 and 102.447 | 90.2128 and 81.4539 | 38.3156 and 41.7553 | 48.1383 and 50.0177 | cell vialibity normalized to Vehicle (DMSO) ([3]; HEK293, dose 100 μM): 40.2704 and 46.6888; cell vialibity normalized to Vehicle (DMSO) ([3]; HEK293, dose 300 μM): 31.6312 and 31.5248; cell vialibity normalized to Vehicle (DMSO) ([3]; HEK293, dose 900 μM): 7.2695 and 4.539 |
| oxycycline |  |  |  |  |  |  |  |  |  |  |  |  |  |  |  |  |  |  |  |  | cell vialibity normalized to Vehicle (DMSO) ([1]; 72 h, dose 0.0457247 μM, Fig. 1A): 95.9551 and 99.8266 and 111.591; cell vialibity normalized to Vehicle (DMSO) ([1]; 72 h, dose 0.137174 μM, Fig. 1A): 122.921 and 100.043 and 106.21; cell vialibity normalized to Vehicle (DMSO) ([1]; 72 h, dose 1.23457 μM, Fig. 1A): 104.27 and 99.6099 and 104.508; cell vialibity normalized to Vehicle (DMSO) ([1]; 72 h, dose 3.7037 μM, Fig. 1A): 87.8652 and 92.4577 and 103.45; cell vialibity normalized to Vehicle (DMSO) ([1]; 72 h, dose 11.1111 μM, Fig. 1A): 101.124 and 98.0061 and 123.919; cell vialibity normalized to Vehicle (DMSO) ([1]; 72 h, dose 33.3333 μM, Fig. 1A): 92.809 and 101.734 and 114.305; cell vialibity normalized to Vehicle (DMSO) ([1]; 72 h, dose 100 μM, Fig. 1A): 28.8764 and 25.2276 and 26.6329; cell vialibity normalized to Vehicle (DMSO) ([1]; 72 h, dose 300 μM, Fig. 1A): 15.1685 and 10.4898 and 12.0515; cell vialibity normalized to Vehicle (DMSO) ([4]; dose 0.0457247 μM): 99.5117 and 100.066 and 89.1698 and 120.008 and 102.707; cell vialibity normalized to Vehicle (DMSO) ([4]; dose 0.137174 μM): 101.938 and 102.097 and 92.5408 and 113.339 and 130.667; cell vialibity normalized to Vehicle (DMSO) ([4]; dose 0.411523 μM): 93.1002 and 107.019 and 97.4538 and 111.081 and 113.453; cell vialibity normalized to Vehicle (DMSO) ([4]; dose 1.23457 μM): 93.4625 and 104.955 and 100.95 and 107.767 and 104.422; cell vialibity normalized to Vehicle (DMSO) ([4]; dose 3.7037 μM): 87.0825 and 89.8101 and 98.4579 and 106.835 and 106.22; cell vialibity normalized to Vehicle (DMSO) ([4]; dose 11.1111 μM): 86.2319 and 86.9364 and 102.905 and 107.27 and 113.598; cell vialibity normalized to Vehicle (DMSO) ([4]; dose 33.3333 μM): 84.2313 and 84.0462 and 91.6801 and 95.3397 and 99.442 |
